≈ marks a conversion by molar mass, not a printed value. Read-outs that look alike come from different tables or passages of the source.
How the values were obtained:
rhinovirus HGP = test: Inhibition of viral cytopathogenic effect (c.p.e.) of rhinovirus HGP in HeLa cells; type: cell-based, human rhinoviruses; conditions: Enterovirus, 48 h, read-out: IC50 against rhinovirus HGP (concentration inhibiting the viral c.p.e. by 50%)
Description: A suspension of HeLa cells (6×10^4) was mixed with rhinovirus HGP (3×10^3 plaque forming units, PFU) and was plated in a microtest plate containing the compounds to be tested serially diluted. The cells were then cultured with Eagle's minimum essential medium containing 2% calf serum, 1% tryptose phosphate broth, 100 μg/ml of streptomycin sulfate and 20 unit/ml of penicillin G. Viral c.p.e. (cytopathogenic effect) was observed by a microscope after 2 days culture at 33° C.
The antiviral activity of the tested compounds is expressed by the concentration inhibiting the viral c.p.e. by 50% when compared to the control culture (IC50).

in vivo = conditions: mouse, DDY mice, single dose
Description: ^(1) DDY mice weighing 15-20 g were treated with a single dose of the
compound. Survivors were recorded on day 21.
^(2) Compounds were dissolved in dimethylsulfoxide.
^(3) Compounds were suspended with solution of 0.5% carboxymethyl

[1] = ip, i.p., dissolved in dimethylsulfoxide, day 21, read-out: LD50 i.p.
[2] = po, p.o., suspended in 0.5% carboxymethyl cellulose, day 21, read-out: LD50 p.o.
[3] = HeLa cells, 2 days culture at 33° C.

SMILES | IC50 (rhinovirus HGP; HeLa) [µg/mL] | LD50 at 504 h (in vivo; [1]) [mg/kg] | LD50 at 504 h (in vivo; [2]) [mg/kg] | IC50 (rhinovirus HGP; [3]) [µg/mL]
COc1cc(O)c(C(=O)/C=C/c2ccc(C)cc2)c(OC)c1 | 0.01 (≈ 0.0335 µM) | > 1000 | > 5000 | 
CCOc1ccc(/C=C/C(=O)c2c(O)cc(OCC)cc2OCC)cc1 | 0.25 (≈ 0.701 µM) | > 1000 | > 3000 | 
COc1cc(O)c(C(=O)/C=C/c2ccc(N(C)C)cc2)c(OC)c1 | 0.02 to 0.06 (≈ 0.0611 to 0.183 µM) | > 1000 | > 5000 | 
COc1cc(O)c(C(=O)/C=C/c2ccc(OC)c(O)c2)c(OC)c1 [2',3-dihydroxy-4,4',6'-trimethoxychalcone] | 0.1 to 0.3 (≈ 0.303 to 0.908 µM) | > 500 | > 1000 | 
CCOc1cc(O)c(C(=O)C=Cc2ccc(C)o2)c(OCC)c1 [2',4'-diethoxy-6'-hydroxy-3-(5-methyl-2-furyl)-acrylophenone] | 0.04 to 0.12 (≈ 0.126 to 0.379 µM) | > 500 | > 1000 | 
CCOc1cc(O)c(C(=O)/C=C/c2ccc(OC)cc2)c(OCC)c1 [2',4'-diethoxy-6'-hydroxy-4-methoxychalcone] | 0.03 to 0.1 (≈ 0.0876 to 0.292 µM) | > 1000 | > 2000 | 
CCC(=O)Oc1cc(OC)cc(OC)c1C(=O)C=Cc1ccc2c(c1)OCO2 [2',4'-dimethoxy-3,4-(methylenedioxy)-6'-(propionyloxy)-chalcone] | 0.1 (≈ 0.26 µM) | > 500 | > 1000 | 
CCC(=O)Oc1cc(OC)cc(OC)c1C(=O)C=Cc1cccn1C [2',4'-dimethoxy-3-(1-methylpyrrol-2-yl)-6'-(propionyloxy)-acrylophenone] | 0.3 (≈ 0.874 µM) | > 500 | > 5000 | 
CCC(=O)Oc1cc(OC)cc(OC)c1C(=O)C=Cc1ccc(C)o1 [2',4'-dimethoxy-3-(5-methyl-2-furyl)-6'-(propionyloxy)-acrylophenone] | 0.03 to 0.1 (≈ 0.0871 to 0.29 µM) | > 500 | > 2000 | 
CCC(=O)Oc1cc(OC)cc(OC)c1C(=O)/C=C/c1ccc(SC)cc1 [2',4'-dimethoxy-4-(methylthio)-6'-(propionyloxy)-chalcone] | 0.03 to 0.1 (≈ 0.0776 to 0.259 µM) | > 1000 | > 5000 | 
CCC(=O)Oc1cc(OC)cc(OC)c1C(=O)/C=C/c1ccc(C)cc1 [2',4'-dimethoxy-4-methyl-6'-(propionyloxy)-chalcone] | 0.03 (≈ 0.0846 µM) | > 1000 | > 5000 | 
CCC(=O)Oc1cc(OC)cc(OC)c1C(=O)C=Cc1cccs1 [2',4'-dimethoxy-6'-(propionyloxy)-3-(2-thienyl)-acrylophenone] | 0.1 to 0.3 (≈ 0.289 to 0.866 µM) | > 1000 | > 5000 | 
CCCOc1ccc(/C=C/C(=O)c2c(OC)cc(OC)cc2OC(=O)CC)cc1 [2',4'-dimethoxy-6'-(propionyloxy)-4-propoxychalcone] | 0.1 to 0.3 (≈ 0.251 to 0.753 µM) | > 1000 | > 5000 | 
CCC(=O)Oc1cc(OC)cc(OC)c1C(=O)/C=C/c1ccccc1 [2',4'-dimethoxy-6'-(propionyloxy)-chalcone] | 0.3 to 1 (≈ 0.881 to 2.94 µM) | > 1000 | > 5000 | 
CCOc1ccc(/C=C/C(=O)c2c(OCC)cc(OCC)cc2OC(=O)CC)cc1 [2',4,4'-triethoxy-6'-(propionyloxy)-chalcone] | 0.1 to 0.3 (≈ 0.242 to 0.727 µM) | > 1000 | > 5000 | 
COc1ccc(/C=C/C(=O)c2c(OC)cc(OC)cc2OC(=O)c2cccnc2)cc1 [2',4,4'-trimethoxy-6'-(nicotinoyloxy)chalcone] | 0.01 to 0.025 (≈ 0.0238 to 0.0596 µM) | > 500 | > 4000 | 
CCCCCCCCCCCCCCCCCC(=O)Oc1cc(OC)cc(OC)c1C(=O)/C=C/c1ccc(OC)cc1 [2',4,4'-trimethoxy-6'-(octadecanoyloxy)chalcone] | 0.05 to 0.1 (≈ 0.0861 to 0.172 µM) | > 500 | > 4000 | 
COc1ccc(/C=C/C(=O)c2c(OC)cc(OC)cc2OC(=O)C(C)(C)C)cc1 [2',4,4'-trimethoxy-6'-(pivaloyloxy)-chalcone] | 0.01 to 0.03 (≈ 0.0251 to 0.0753 µM) | > 1000 | > 5000 | 
COc1ccc(/C=C/C(=O)c2c(OC)cc(OC)cc2OC(=O)c2cnccn2)cc1 [2',4,4'-trimethoxy-6'-(pyrazinylcarbonyloxy)-chalcone] | 0.03 to 0.1 (≈ 0.0714 to 0.238 µM) | > 500 | > 4000 | 
CCOc1ccc(/C=C/C(=O)c2c(O)cc(OC)cc2OCC)cc1 [2',4-diethoxy-6'-hydroxy-4'-methoxychalcone] | 0.1 (≈ 0.292 µM) | > 500 | > 5000 | 
COc1cc(O)c(C(=O)/C=C/c2ccc(O)c(OC)c2)c(OC)c1 [2',4-dihydroxy-3,4',6'-trimethoxychalcone] |  |  |  | 0.3 to 1 (≈ 0.908 to 3.03 µM)
COc1cc(O)c(C(=O)/C=C/c2ccc(O)cc2)c(OC)c1 [2',4-dihydroxy-4',6'-dimethoxychalcone] | 0.3 to 1 (≈ 0.999 to 3.33 µM) | > 500 | > 3200 | 

SMILES | IC50 (rhinovirus HGP; HeLa) [µg/mL] | LD50 at 504 h (in vivo; [1]) [mg/kg] | LD50 at 504 h (in vivo; [2]) [mg/kg] | IC50 (rhinovirus HGP; [3]) [µg/mL]
COc1ccc(/C=C/C(=O)c2c(OC)cc(OC)cc2OC(=O)CCCC(=O)O)cc1 [2'-(4-carboxybutanoyloxy)-4,4',6'-trimethoxychalcone] | 0.03 (≈ 0.07 µM) | > 500 | > 2000 | 
COc1ccc(/C=C/C(=O)c2c(OC)cc(OC)cc2OC(=O)[C@H](C)N)cc1 [2'-(L-alanyloxy)-4,4',6'-trimethoxychalcone] | 0.03 to 0.1 (≈ 0.0778 to 0.259 µM) | > 180 | > 1000 | 
CCOC(=O)Oc1cc(OC)cc(OC)c1C(=O)/C=C/c1ccc(OC)cc1 [2'-(ethoxycarbonyloxy)-4,4',6'-trimethoxychalcone] | 0.04 (≈ 0.104 µM) | > 500 | > 4000 | 
CCOc1cc(OC)cc(OC(=O)CC)c1C(=O)/C=C/c1ccc(OC)cc1 [2'-ethoxy-4,4'-dimethoxy-6'-(propionyloxy)-chalcone] | 0.02 to 0.06 (≈ 0.052 to 0.156 µM) | > 1000 | > 5000 | 
CCOc1cc(OC)cc(O)c1C(=O)C=Cc1ccc(C)o1 [2'-ethoxy-6'-hydroxy-4'-methoxy-3-(5-methyl-2-furyl)-acrylophenone] | 0.04 (≈ 0.132 µM) | > 500 | > 1000 | 
CCOc1cc(OC)cc(O)c1C(=O)/C=C/c1ccc(OC)cc1 [2'-ethoxy-6'-hydroxy-4,4'-dimethoxychalcone] | 0.01 (≈ 0.0305 µM) | > 500 | > 1000 | 
COc1cc(O)c(C(=O)/C=C/c2cccc(OC)c2OC)c(OC)c1 [2'-hydroxy-2,3,4',6'-tetramethoxychalcone] | 0.1 (≈ 0.29 µM) | > 500 | > 1000 | 
COc1ccc(/C=C/C(=O)c2c(O)cc(OC)cc2OC)c(OC)c1 [2'-hydroxy-2,4,4',6'-tetramethoxychalcone] | 0.1 (≈ 0.29 µM) | > 500 | > 1000 | 
COc1cc(/C=C/C(=O)c2c(O)cc(OC)cc2OC)cc(OC)c1 [2'-hydroxy-3,4',5,6'-tetramethoxychalcone] | 0.3 (≈ 0.871 µM) | > 500 | > 5000 | 
COc1cccc(/C=C/C(=O)c2c(O)cc(OC)cc2OC)c1 [2'-hydroxy-3,4',6'-trimethoxychalcone] | 0.1 (≈ 0.318 µM) | > 500 | > 1000 | 
COc1cc(O)c(C(=O)/C=C/c2ccc(OC)c(OC)c2)c(OC)c1 [2'-hydroxy-3,4,4',6'-tetramethoxychalcone] | 0.1 to 0.3 (≈ 0.29 to 0.871 µM) | > 500 | > 500 | 
COc1cc(O)c(C(=O)C=Cc2ccc3c(c2)OCO3)c(OC)c1 [2'-hydroxy-4',6'-dimethoxy-3,4-(methylenedioxy)-chalcone] | 0.02 (≈ 0.0609 µM) | > 1000 | > 5000 | 
COc1cc(O)c(C(=O)C=Cc2cccn2C)c(OC)c1 [2'-hydroxy-4',6'-dimethoxy-3-(1-methyl-pyrrol-2-yl)-acrylophenone] | 0.1 (≈ 0.348 µM) | > 500 | > 1000 | 
COc1cc(O)c(C(=O)C=Cc2sccc2C)c(OC)c1 [2'-hydroxy-4',6'-dimethoxy-3-(3-methyl-2-thienyl)-acrylophenone] | 0.1 (≈ 0.329 µM) | > 500 | > 1500 | 
COc1cc(O)c(C(=O)C=Cc2cccnc2)c(OC)c1 [2'-hydroxy-4',6'-dimethoxy-3-(3-pyridyl)-acrylophenone] |  |  |  | 0.6 (≈ 2.1 µM)
COc1cc(O)c(C(=O)C=Cc2ccc(C)o2)c(OC)c1 [2'-hydroxy-4',6'-dimethoxy-3-(5-methyl-2-furyl)-acrylophenone] | 0.03 (≈ 0.104 µM) | > 500 | > 2000 | 
COc1cc(O)c(C(=O)/C=C/c2ccc(SC)cc2)c(OC)c1 [2'-hydroxy-4',6'-dimethoxy-4-(methylthio)-chalcone] | 0.03 (≈ 0.0908 µM) | > 1000 | > 5000 | 
CCCOc1ccc(/C=C/C(=O)c2c(O)cc(OC)cc2OC)cc1 [2'-hydroxy-4',6'-dimethoxy-4-propoxychalcone] | 0.1 (≈ 0.292 µM) | > 500 | > 5000 | 
COc1cc(O)c(C(=O)/C=C/c2ccccc2)c(OC)c1 [2'-hydroxy-4',6'-dimethoxychalcone] | 0.1 to 0.3 (≈ 0.352 to 1.06 µM) | > 1000 | > 5000 | 
CCN(CC)c1ccc(/C=C/C(=O)c2c(O)cc(OC)cc2OC)cc1 [4-(diethylamino)-2'-hydroxy-4',6'-dimethoxychalcone] |  |  |  | 0.6 to 2 (≈ 1.69 to 5.63 µM)
COc1cc(O)c(C(=O)/C=C/c2ccc(N)cc2)c(OC)c1 [4-amino-2'-hydroxy-4',6'-dimethoxychalcone] |  |  |  | 0.03 to 0.1 (≈ 0.1 to 0.334 µM)

Source: patent US4605674A, “Substituted acetophenones and compositions containing them” (Hoffmann-La Roche Inc., priority 1979, dated 1986)
